Measured values as given in patent US12024510B2, “Pyrazolopyridine-diamides, their use as insecticide and processes for preparing the same” (PI INDUSTRIES LTD., priority 2017, dated 2024).

Assays:
Assay type in all cases: in vivo
Helicoverpa armigera = Helicoverpa armigera diet incorporation method; settings: third instar larvae, dead and moribund combined, 96 h after release
Procedure, shortened: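 500 ppm stock of compound milled with surfactant and zirconia beads to average particle size below 2 μm, dispersed in DM water, diluted as needed, and mixed into semi-synthetic diet at about 50° C. Single starved third-instar larvae per cell, held at 25° C., 70% RH; dead plus moribund larvae scored as percent mortality at 96 h.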

Spodoptera litura = Spodoptera litura diet incorporation method; settings: third instar larvae, dead and moribund combined, 96 h after release
Procedure, shortened: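 Compound milled to <2 μm average particle size in surfactant, dispersed in water (500 ppm stock dispersion), then mixed into semi-synthetic diet at ~50° C. One starved third-instar larva per diet cell, 25° C, 70% RH; percent mortality (dead plus moribund) scored at 96 h.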

Plutella xylostella = test: whole plant or invertebrate; settings: foliar, cabbage leaf dip, second instar larvae, dead and moribund combined, 72 h after release
Procedure, shortened: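 Compounds milled with zirconia beads into surfactant dispersion (500 ppm stock), diluted in 0.01% Triton-X. Cabbage leaves dipped 10 s, shade-dried 20 min; one second-instar larva per cell, 25 °C, 70% RH. Mortality (dead plus moribund) scored at 72 h.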

Measured: mortality at 300 ppm

CC(C)NC(=O)c1c(NC(=O)c2cc(Br)nn2-c2ncccc2Cl)c(Br)cc2ccnn12 [Compound 91, 5-bromo-6-(3-bromo-1-(3-chloropyridin-2-yl)-1H-pyrazole-5-carboxamido)-N-isopropylpyrazolo[1,5-a]pyridine-7-carboxamide]
> 70%: all assays above

Cc1cc2ccnn2c(C(=O)NCC2CC2)c1NC(=O)c1cc(OC2CSC2)nn1-c1ncccc1Cl [Compound 72, 6-(1-(3-chloropyridin-2-yl)-3-(thietan-3-yloxy)-1H-pyrazole-5-carboxamido)-N-(cyclopropylmethyl)-5-methylpyrazolo[1,5-a]pyridine-7-carboxamide]
> 70%: all assays above

Cc1cc2ccnn2c(C(=O)NC(C)(C)C)c1NC(=O)c1cc(Br)nn1-c1ncccc1Cl [Compound 8, 6-(3-bromo-1-(3-chloropyridin-2-yl)-1H-pyrazole-5-carboxamido)-N-(tert-butyl)-5-methylpyrazolo[1,5-a]pyridine-7-carboxamide]
> 70%: all assays above

CNC(=O)c1c(NC(=O)c2cc(OC)nn2-c2ncccc2Cl)c(Cl)cc2ccnn12 [Compound 135, 5-chloro-6-(1-(3-chloropyridin-2-yl)-3-methoxy-1H-pyrazole-5-carboxamido)-N-methylpyrazolo[1,5-a]pyridine-7-carboxamide]
> 70%: all assays above

Cc1cc2ccnn2c(C(=O)NC(C)C)c1NC(=O)c1cc(Br)nn1-c1ncccc1Cl [Compound 4, 6-(3-bromo-1-(3-chloropyridin-2-yl)-1H-pyrazole-5-carboxamido)-N-isopropyl-5-methylpyrazolo[1,5-a]pyridine-7-carboxamide]
> 70%: all assays above

CC(C)NC(=O)c1c(NC(=O)c2cc(Br)nn2-c2ncccc2Cl)c(Cl)cc2ccnn12 [Compound 138, 6-(3-bromo-1-(3-chloropyridin-2-yl)-1H-pyrazole-5-carboxamido)-5-chloro-N-isopropylpyrazolo[1,5-a]pyridine-7-carboxamide]
> 70%: all assays above

COCCNC(=O)c1c(NC(=O)c2cc(OC)nn2-c2ncccc2Cl)c(C)cc2ccnn12 [Compound 33, 6-(1-(3-chloropyridin-2-yl)-3-methoxy-1H-pyrazole-5-carboxamido)-N-(2-methoxyethyl)-5-methylpyrazolo[1,5-a]pyridine-7-carboxamide]
> 70%: all assays above

Cc1cc2ccnn2c(C(=O)NC(C)C)c1NC(=O)c1cc(C(F)(F)F)nn1-c1ncccc1Cl [Compound 60, 6-(1-(3-chloropyridin-2-yl)-3-(trifluoromethyl)-1H-pyrazole-5-carboxamido)-N-isopropyl-5-methylpyrazolo[1,5-a]pyridine-7-carboxamide]
> 70%: all assays above

CCCNC(=O)c1c(NC(=O)c2cc(Br)nn2-c2ncccc2Cl)c(C)cc2ccnn12 [Compound 21, 6-(3-bromo-1-(3-chloropyridin-2-yl)-1H-pyrazole-5-carboxamido)-5-methyl-N-propylpyrazolo[1,5-a]pyridine-7-carboxamide]
> 70%: all assays above

Cc1cc2ccnn2c(C(=O)NC2CC2)c1NC(=O)c1cc(C(F)(F)F)nn1-c1ncccc1Cl [Compound 61, 6-(1-(3-chloropyridin-2-yl)-3-(trifluoromethyl)-1H-pyrazole-5-carboxamido)-N-cyclopropyl-5-methylpyrazolo[1,5-a]pyridine-7-carboxamide]
> 70%: all assays above

CCNC(=O)c1c(NC(=O)c2cc(OCC(F)(F)F)nn2-c2ncccc2Cl)c(C)cc2ccnn12 [Compound 10, 6-(1-(3-chloropyridin-2-yl)-3-(2,2,2-trifluoroethoxy)-1H-pyrazole-5-carboxamido)-N-ethyl-5-methylpyrazolo[1,5-a]pyridine-7-carboxamide]
> 70%: all assays above

CNC(=O)c1c(NC(=O)c2cc(Br)nn2-c2ncccc2Cl)c(Cl)cc2ccnn12 [Compound 148, 6-(3-bromo-1-(3-chloropyridin-2-yl)-1H-pyrazole-5-carboxamido)-5-chloro-N-methylpyrazolo[1,5-a]pyridine-7-carboxamide]
> 70%: all assays above

CCCNC(=O)c1c(NC(=O)c2cc(OC)nn2-c2ncccc2Cl)c(C)cc2ccnn12 [Compound 29, 6-(1-(3-chloropyridin-2-yl)-3-methoxy-1H-pyrazole-5-carboxamido)-5-methyl-N-propylpyrazolo[1,5-a]pyridine-7-carboxamide]
> 70%: all assays above

CSCCNC(=O)c1c(NC(=O)c2cc(Br)nn2-c2ncccc2Cl)c(Br)cc2ccnn12 [Compound 55, 5-bromo-6-(3-bromo-1-(3-chloropyridin-2-yl)-1H-pyrazole-5-carboxamido)-N-(2-(methylthio)ethyl)pyrazolo[1,5-a]pyridine-7-carboxamide]
> 70%: all assays above

Cc1cc2ccnn2c(C(=O)NCC2CC2)c1NC(=O)c1cc(C(F)(F)F)nn1-c1ncccc1Cl [Compound 62, 6-(1-(3-chloropyridin-2-yl)-3-(trifluoromethyl)-1H-pyrazole-5-carboxamido)-N-(cyclopropylmethyl)-5-methylpyrazolo[1,5-a]pyridine-7-carboxamide]
> 70%: all assays above

COc1cc(C(=O)Nc2c(C)cc3ccnn3c2C(=O)NCC(F)F)n(-c2ncccc2Cl)n1 [Compound 214, 6-(1-(3-chloropyridin-2-yl)-3-methoxy-1H-pyrazole-5-carboxamido)-N-(2,2-difluoroethyl)-5-methylpyrazolo[1,5-a]pyridine-7-carboxamide]
> 70%: all assays above

C#CCNC(=O)c1c(NC(=O)c2cc(Br)nn2-c2ncccc2Cl)c(Cl)cc2ccnn12 [Compound 141, 6-(3-bromo-1-(3-chloropyridin-2-yl)-1H-pyrazole-5-carboxamido)-5-chloro-N-(prop-2-yn-1-yl)pyrazolo[1,5-a]pyridine-7-carboxamide]
> 70%: all assays above
